Experimental data reported in patent US20220054515A1, “COMPOSITION AND METHOD FOR PROMOTING INTESTINAL BARRIER HEALING” (Glycom A/S, priority 2018, published 2022).

Biological target: T1, GPR35 (Homo sapiens, UniProt Q9HC97)
T1 construct: host or cells: PathHunter GPR35 cell line
Experiment: GPR35 activation, PathHunter β-Arrestin assay (DiscoverX)
Assay type: cell-based
Conditions: β-arrestin recruitment; for activation of GPR35 (result in words): highest concentration tested 10 mM; for EC50: β-Gal enzyme fragment complementation, chemiluminescence, highest concentration 10 mM, 3× dilutions, duplicate
Experimental: Six human milk oligosaccharides (LNnT, LNT, 2′-FL, DFL, 6′-SL and 3′-SL) were screened for their ability to activate the GPR35 receptor in an in vitro assay. The screening was conducted by DiscoverX (Fremont, Calif., USA) using the PathHunter β-Arresin assay. This assay monitored the activation of GPR35 expressed in cultured cells, using Enzyme Fragment Complementation with β-galactosidase (β-Gal) as the functional reporter. […] EA was fused to […]. When the GPR35 is activated and β-Arrestin is recruited to the receptor, PK and EA complementation occurs, restoring β-Gal activity, which was measured using chemiluminescent Detection Reagents.
The GPR35 cell line was expanded from frozen stocks and cultured according to standard procedures. Cells were seeded in a total volume of 20 μl into white walled, 384-well microplates and incubated at 37° C. for the appropriate time prior to testing. All of the testings were done in duplicate.
HMO samples were shipped to DiscoverX as concentrated stocks in Phosphate Buffered saline. On the test day, a 5× compound working intermediate was prepared in PBS. Five μl of 5× sample were added to cells and incubated at room temperature for 3 to 5 hours.
Assay signal was generated through a single addition of 12.5 μl (50 v/v %) of PathHunter Detection reagent cocktail, followed by one-hour incubation at room temperature. Microplates were read following signal generation with a PerkinElmer Envision™ instrument for chemiluminescent signal detection. Zaprinast (which is known to be an activator of GPR35) was used as positive control. Dose-responses were generated by iterative 3× dilutions of the highest concentration tested (10 mM).

T1 sequence (Q9HC97 whole entry): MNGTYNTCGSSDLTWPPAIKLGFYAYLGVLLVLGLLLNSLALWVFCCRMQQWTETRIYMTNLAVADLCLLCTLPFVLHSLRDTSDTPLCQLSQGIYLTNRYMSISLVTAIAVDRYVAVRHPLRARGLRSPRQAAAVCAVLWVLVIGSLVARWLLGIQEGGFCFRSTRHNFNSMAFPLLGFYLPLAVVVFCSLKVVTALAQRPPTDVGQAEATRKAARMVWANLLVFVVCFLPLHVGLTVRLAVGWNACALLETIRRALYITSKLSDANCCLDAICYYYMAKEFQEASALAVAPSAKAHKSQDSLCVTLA

| activation of GPR35 (result in words) | EC50 [mM] | SMILES |
| --- | --- | --- |
| No activation |  | CC(=O)N[C@H]1[C@H](O[C@H]2[C@@H](O)[C@@H](CO)O[C@@H](O[C@H]3[C@H](O)[C@@H](O)C(O)O[C@@H]3CO)[C@@H]2O)O[C@H](CO)[C@@H](O[C@@H]2O[C@H](CO)[C@H](O)[C@H](O)[C@H]2O)[C@@H]1O (mixture of isomers) [LNnT, lacto-N-neotetraose] |
| No activation |  | C[C@@H]1O[C@@H](O[C@H]2[C@H](O[C@H]3[C@H](O[C@@H]4O[C@@H](C)[C@@H](O)[C@@H](O)[C@@H]4O)[C@@H](O)C(O)O[C@@H]3CO)O[C@H](CO)[C@H](O)[C@@H]2O)[C@@H](O)[C@H](O)[C@@H]1O (some centres unmarked) [DFL, difucosyllactose] |
|  | 4.5 | CC(=O)N[C@H]1[C@H](O[C@H]2[C@@H](O)[C@@H](CO)O[C@@H](O[C@H]3[C@H](O)[C@@H](O)C(O)O[C@@H]3CO)[C@@H]2O)O[C@H](CO)[C@@H](O)[C@@H]1O[C@@H]1O[C@H](CO)[C@H](O)[C@H](O)[C@H]1O (some centres unmarked) [LNT, lacto-N-tetraose] |

Second part, the compound before the results:

| SMILES | activation of GPR35 (result in words) | EC50 [mM] |
| --- | --- | --- |
| CC(=O)N[C@H]1[C@H]([C@H](O)[C@H](O)CO)O[C@@](O[C@H]2[C@@H](O)[C@@H](CO)O[C@@H](O[C@H]3[C@H](O)[C@@H](O)C(O)O[C@@H]3CO)[C@@H]2O)(C(=O)O)C[C@@H]1O (some centres unmarked) [3′-SL, 3′-sialyllactose] | No activation |  |
| CC(=O)N[C@H]1[C@H]([C@H](O)[C@H](O)CO)O[C@@](OC[C@H]2O[C@@H](O[C@H]3[C@H](O)[C@@H](O)[C@H](O)O[C@@H]3CO)[C@H](O)[C@@H](O)[C@H]2O)(C(=O)O)C[C@@H]1O [6′-SL, 6′-sialyllactose] |  | 6.5 |
